Reference: article PMC4661537 (2015)

Assays:
[1] = tested on: Spi-tRNA (RNA, aptamer) GCCCGGAUAGCUCAGUCGGUAGAGCAGCGGCCGGACGCAACUGAAUGAAAUGGUGAAGGACGGGUCCAGGUGUGGCUGCUUCGGCAGUGCAGCUUGUUGAGUAGAGUGUGAGCUCCGUAACUAGUCGCGUCCGGCCGCGGGUCCAGGGUUCAAGUCCCUGUUCGGGCGCCA; assay: fluorescence activation; conditions: K+ 125 mM, Mg2+ 5 mM (folding buffer); fluorescence slightly higher than single Spinach
[2] = tested on: Spi (single Spinach aptamer, 24-2) (RNA, aptamer) GACGCAACUGAAUGAAAUGGUGAAGGACGGGUCCAGGUGUGGCUGCUUCGGCAGUGCAGCUUGUUGAGUAGAGUGUGAGCUCCGUAACUAGUCGCGUC; assay: fluorescence association kinetics (koff/kon); conditions: K+ 125 mM, Mg2+ 5 mM (folding buffer); 40 mM K-HEPES pH 7.5; 40 nM aptamer, DFHBI 200-600 nM; mean over concentrations; biphasic; per site
[3] = tested on: Spi-8R (RNA, aptamer) UAGACGGCAUGGGGAGACGCGACCGAAAUGGUGAAGGACGGGUCCAGUGCUUCGGCACUGUUGAGUAGAGUGUGAGCUCCGUAACUGGUCGCGUCACGUAAGAUGCUCCGGUUAGGGAGACGCGACCGAAAUGGUGAAGGACGGGUCCAGUGCUUCGGCACUGUUGAGUAGAGUGUGAGCUCCGUAACUGGUCGCGUCACUGAUGUACCGUUGAGCAGGGAGACGCGACCGAAAUGGUGAAGGACGGGUCCAGUGCUUCGGCACUGUUGAGUAGAGUGUGAGCUCCGUAACUGGUCGCGUCACUCGCUAGAGCAUGGUUUGGGAGACGCGACCGAAAUGGUGAAGGACGGGUCCAGUGCUUCGGCACUGUUGAGUAGAGUGUGAGCUCCGUAACUGGUCGCGUCACUGGGGCACGCCGUCUGGGGGAGACGCGACCGAAAUGGUGAAGGACGGGUCCAGUGCUUCGGCACUGUUGAGUAGAGUGUGAGCUCCGUAACUGGUCGCGUCACUUACUGCGACCGCAAUAGGGAGACGCGACCGAAAUGGUGAAGGACGGGUCCAGUGCUUCGGCACUGUUGAGUAGAGUGUGAGCUCCGUAACUGGUCGCGUCACGCGCGCAACCGGGUAGAGGGAGACGCGACCGAAAUGGUGAAGGACGGGUCCAGUGCUUCGGCACUGUUGAGUAGAGUGUGAGCUCCGUAACUGGUCGCGUCACGUAACUCACGGCGCUAUGGGAGACGCGACCGAAAUGGUGAAGGACGGGUCCAGUGCUUCGGCACUGUUGAGUAGAGUGUGAGCUCCGUAACUGGUCGCGUC; assay: fluorescence association kinetics (koff/kon); conditions: K+ 125 mM, Mg2+ 5 mM (folding buffer); 40 mM K-HEPES pH 7.5; 10 nM RNA (34.8 nM folded aptamer), DFHBI 200-600 nM; per aptamer; biphasic; per site

- binding [1]: yes
- KD [2]: 303 ± 22 nM
- KD [3]: 246 ± 67 nM
Structure (SMILES): CC1=N/C(=C\c2cc(F)c(O)c(F)c2)C(=O)N1C
